BindingDB's records for doi:10.1016/s0960-894x(01)00378-x (The R. W. Johnson Pharmaceutical Research Institute, 2001)

What was measured:
[1] = In vitro inhibition of human platelet aggregation induced by alpha-thrombin (at a concentration of 0.15 nM)
[2] = target: T1, Proteinase-activated receptor 1 (Homo sapiens, UniProt P25116); assay: In vitro inhibition of human platelet aggregation induced by SFLLRN-NH2 (at a concentration of 2 uM)
T1 sequence (P25116 whole entry): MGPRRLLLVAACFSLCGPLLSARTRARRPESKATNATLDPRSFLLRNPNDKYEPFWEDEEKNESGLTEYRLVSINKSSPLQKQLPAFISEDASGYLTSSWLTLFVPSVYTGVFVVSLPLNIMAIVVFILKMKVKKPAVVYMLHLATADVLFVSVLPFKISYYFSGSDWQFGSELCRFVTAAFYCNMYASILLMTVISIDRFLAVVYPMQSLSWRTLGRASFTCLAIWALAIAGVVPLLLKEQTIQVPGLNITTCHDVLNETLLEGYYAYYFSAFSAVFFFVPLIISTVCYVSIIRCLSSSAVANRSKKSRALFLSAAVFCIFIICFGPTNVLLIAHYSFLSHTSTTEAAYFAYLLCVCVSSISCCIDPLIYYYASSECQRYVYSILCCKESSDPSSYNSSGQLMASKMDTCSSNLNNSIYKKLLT

[3] = target: T1, Proteinase-activated receptor 1; assay: In vitro inhibition of human platelet aggregation induced by alpha-thrombin (at a concentration of 0.15 nM)
[4] = In vitro inhibition of human platelet aggregation induced by SFLLRN-NH2 (at a concentration of 2 uM)

Row | SMILES | IC50 [1] [nM] | IC50 [2] [nM] | IC50 [4] [nM] | IC50 [3] [nM]
1 | N=C(N)NCCC[C@H](NC(=O)[C@H](Cc1ccc(F)c(F)c1)NC(=O)Nc1ccc2c(CN3CCCC3)cn(Cc3c(Cl)cccc3Cl)c2c1)C(=O)NCc1ccccc1 [(S)-2-[(S)-2-{3-[1-(2,6-Dichloro-benzyl)-3-pyrrolidin-1-ylmethyl-1H-indol-6-yl]-ureido}-3-(3,4-difluoro-phenyl)-propionylamino]-5-guanidino-pentanoic acid benzylamide] | 570 |  |  | 
2 | NC(N)=NCCCC(NC(=O)C(Cc1ccc([N+](=O)[O-])cc1)NC(=O)Nc1ccc2c(CN3CCCC3)cn(Cc3ccc(F)cc3)c2c1)C(=O)NCc1ccccc1 [(S)-2-[(S)-2-{3-[1-(4-Fluoro-benzyl)-3-pyrrolidin-1-ylmethyl-1H-indol-6-yl]-ureido}-3-(4-nitro-phenyl)-propionylamino]-5-guanidino-pentanoic acid benzylamide] |  | 130 |  | 6100
3 | CCN(CC)Cc1cn(Cc2ccccc2C)c2cc(NC(=O)N[C@@H](Cc3ccc(OC)cc3)C(=O)N[C@@H](CCCNC(=N)N)C(=O)NCCCc3ccccc3)ccc12 [(S)-2-[(S)-2-{3-[3-Diethylaminomethyl-1-(2-methyl-benzyl)-1H-indol-6-yl]-ureido}-3-(4-methoxy-phenyl)-propionylamino]-5-guanidino-pentanoic acid (3-phenyl-propyl)-amide] | 3000 |  | 230 | 
4 | COc1ccc(C[C@H](NC(=O)Nc2ccc3c(CN4CCCC4)cn(Cc4c(Cl)cccc4Cl)c3c2)C(=O)N[C@@H](CCCN=C(N)N)C(=O)NCc2ccccc2)cc1 [RWJ-54003] |  |  |  | 900

More lines, main results first:

Row | IC50 [1] [nM] | IC50 [2] [nM] | IC50 [4] [nM] | SMILES | IC50 [3] [nM]
5 |  | 150 |  | Cc1ccccc1Cn1cc(CN2CCCC2)c2ccc(NC(=O)NC(Cc3ccc([N+](=O)[O-])cc3)C(=O)NC(CCCNC(=N)N)C(=O)NCc3ccccc3)cc21 [(S)-5-Guanidino-2-[(S)-2-{3-[1-(2-methyl-benzyl)-3-pyrrolidin-1-ylmethyl-1H-indol-6-yl]-ureido}-3-(4-nitro-phenyl)-propionylamino]-pentanoic acid benzylamide] | 
6 | 700 |  | 100 | NCCCC[C@H](NC(=O)[C@H](Cc1ccc(F)c(F)c1)NC(=O)Nc1ccc2c(CN3CCCC3)cn(Cc3c(Cl)cccc3Cl)c2c1)C(=O)NCc1ccccc1 [(S)-6-Amino-2-[(S)-2-{3-[1-(2,6-dichloro-benzyl)-3-pyrrolidin-1-ylmethyl-1H-indol-6-yl]-ureido}-3-(3,4-difluoro-phenyl)-propionylamino]-hexanoic acid benzylamide] | 
7 | 460 |  | 200 | O=C(Nc1ccc2c(CN3CCCC3)cn(Cc3c(Cl)cccc3Cl)c2c1)N[C@@H](Cc1ccc(F)c(F)c1)C(=O)NC(Cc1cnc[nH]1)C(=O)NCc1ccccc1 (stereo partly drawn) [(S)-N-[1-Benzylcarbamoyl-2-(3H-imidazol-4-yl)-ethyl]-2-{3-[1-(2,6-dichloro-benzyl)-3-pyrrolidin-1-ylmethyl-1H-indol-6-yl]-ureido}-3-(3,4-difluoro-phenyl)-propionamide] | 
